According to patent EP0238178B1, “Novel derivatives of erythromycylamine” (ELI LILLY AND COMPANY, priority 1986, dated 1987):
Values after ≈ are worked out from the molar mass of the structure shown. Like-named read-outs stand apart in the source and are kept apart here.

Columns and labels:
[1] = system: Staphylococcus aureus V41; test: MIC, standard agar-dilution assay; format: cell-based
From the text: (§1) In addition to excellent in vitro activity against erythromycin-sensitive bacteria, several members of this new series have shown in vitro activity against erythromycin-resistant strains. These include strains which are inducibly-resistant to erythromycin (S.. aureus V41 and X400 and S. epidermidis EPI1) and even strains which are constitutively-resistant (S. epidermidis 270).

[2] = system: Staphylococcus aureus X400; test: MIC, standard agar-dilution assay; format: cell-based
From the text: as §1

[3] = system: Streptococcus pneumoniae Park I; test: MIC, standard agar-dilution assay; format: cell-based
[4] = system: Streptococcus pyogenes C203; test: MIC, standard agar-dilution assay; format: cell-based
[5] = system: Staphylococcus aureus S13E; test: MIC, standard agar-dilution assay; format: cell-based
[6] = system: Streptococcus sp. group D 2041; test: MIC, standard agar-dilution assay; format: cell-based
[7] = system: Staphylococcus epidermidis 222; test: MIC, standard agar-dilution assay; format: cell-based
Escherichia coli EC14 = test: MIC, standard agar-dilution assay; format: cell-based
[8] = system: Haemophilus influenzae 76; test: MIC, standard agar-dilution assay; format: cell-based; conditions: Haemophilus influenzae 76, Ampicillin-resistant strain
[9] = system: Streptococcus sp. group D X66; test: MIC, standard agar-dilution assay; format: cell-based
[10] = system: Klebsiella pneumoniae X68; test: MIC, standard agar-dilution assay; format: cell-based
[11] = system: Staphylococcus aureus X1.1; test: MIC, standard agar-dilution assay; format: cell-based
[12] = system: Haemophilus influenzae C.L.; test: MIC, standard agar-dilution assay; format: cell-based; conditions: Ampicillin-sensitive strain
Staphylococcus aureus = test: Experimental bacterial infection in mice, ED50; format: in vivo; conditions: Staphylococcus aureus, two doses, dose protecting 50% of animals
Procedure: (§2) The new derivatives of this invention have also shown in vivo antimicrobial activity against experimental bacterial infections. When two doses of test compound were administered to mice in experimental infections, the activity observed was measured as an EDso value [effective dose in mg/kg to protect 50% of the test animals: see Warren Wick, et al., J. Bacteriol. 81, 233-235 (1961)].

Streptococcus pyogenes = test: Experimental bacterial infection in mice, ED50; format: in vivo; conditions: Streptococcus pyogenes, po, two doses, dose protecting 50% of animals, read-out: Oral ED50
Procedure: as §2

Streptococcus pneumoniae = test: Experimental bacterial infection in mice, ED50; format: in vivo; conditions: Streptococcus pneumoniae, po, two doses, dose protecting 50% of animals, read-out: Oral ED50
Procedure: as §2

[13] = system: Staphylococcus epidermidis EPI1; test: MIC, standard agar-dilution assay; format: cell-based
From the text: as §1

[14] = Staphylococcus aureus V41, Penicillin-resistant strain, inducibly-resistant to erythromycin, read-out: MIC
[15] = Staphylococcus aureus X400, Methicillin-resistant strain, inducibly-resistant to erythromycin, read-out: MIC
[16] = Streptococcus sp. group D X66, read-out: MIC

Molecule	MIC [5]	MIC [1, 14]	MIC [2, 15]	MIC ([4]; read-out: MIC)	MIC ([6]; read-out: MIC)	MIC ([7]; read-out: MIC)	MIC (Escherichia coli EC14; read-out: MIC)	MIC ([8]; read-out: MIC)	MIC ([10]; read-out: MIC)	MIC ([11]; read-out: MIC)	ED50 (Staphylococcus aureus; po, read-out: Oral ED50)	ED50 (Streptococcus pyogenes)	ED50 (Streptococcus pneumoniae)	MIC ([12]; read-out: MIC)	MIC ([3]; read-out: MIC)	MIC [9, 16]	also measured
9-Deoxo-9-[(5-dimethylamino-2-pentyl)amino]-9,11-1N,O)-cyclic. Methylene Adduct of Erythromycin [Compound 63]	8 µg/mL																MIC ([1]; Staphylococcus aureus V41, Penicillin-resistant strain, inducibly-resistant to erythromycin): – (– = >128); MIC ([2]; Staphylococcus aureus X400, Methicillin-resistant strain, inducibly-resistant to erythromycin): – (– = >128); MIC [3]: 0.5 µg/mL; MIC [4]: 0.5 µg/mL; MIC [6]: 32 µg/mL; MIC [7]: 8 µg/mL; MIC (Escherichia coli EC14): 32 µg/mL; MIC [8]: 8 µg/mL; MIC ([9]; Streptococcus sp. group D X66): 2 µg/mL; MIC [10]: 128 µg/mL; MIC [11]: 8 µg/mL; MIC [12]: 8 µg/mL
CC[C@H]1OC(=O)[C@H](C)[C@@H](O[C@H]2C[C@@](C)(OC)[C@@H](O)[C@H](C)O2)[C@H](C)[C@@H](O[C@@H]2O[C@H](C)C[C@H](N(C)C)[C@H]2O)[C@](C)(O)C[C@@H](C)[C@H](NC)[C@H](C)[C@@H](O)[C@]1(C)O [Compound 1, 9-Deoxo-9-(methylamino)erythromycin]	0.125 µg/mL (≈ 0.167 µM)	64 µg/mL (≈ 85.4 µM)	64 µg/mL (≈ 85.4 µM)	0.06 µg/mL (≈ 0.0801 µM)	1 µg/mL (≈ 1.34 µM)	0.25 µg/mL (≈ 0.334 µM)	32 µg/mL (≈ 42.7 µM)	1 µg/mL (≈ 1.34 µM)	64 µg/mL (≈ 85.4 µM)	1 µg/mL (≈ 1.34 µM)	43.8 mg/kg	21 mg/kg	35.4 mg/kg	0.5 µg/mL (≈ 0.668 µM)			MIC ([9]; Streptococcus): 0.125 µg/mL (≈ 0.167 µM)
CCC(CC)CN[C@@H]1[C@H](C)[C@@H](O)[C@](C)(O)[C@@H](CC)OC(=O)[C@H](C)[C@@H](O[C@H]2C[C@@](C)(OC)[C@@H](O)[C@H](C)O2)[C@H](C)[C@@H](O[C@@H]2O[C@H](C)C[C@H](N(C)C)[C@H]2O)[C@](C)(O)C[C@H]1C [Compound 12, 9-Deoxo-9-[(2-ethylbutyl)amino]erythromycin]	0.25 µg/mL (≈ 0.305 µM)	16 µg/mL (≈ 19.5 µM)	16 µg/mL (≈ 19.5 µM)	0.015 µg/mL (≈ 0.0183 µM)	8 µg/mL (≈ 9.77 µM)	0.5 µg/mL (≈ 0.61 µM)	64 µg/mL (≈ 78.1 µM)	2 µg/mL (≈ 2.44 µM)	32 µg/mL (≈ 39.1 µM)	0.5 µg/mL (≈ 0.61 µM)	22.3 mg/kg	9.4 mg/kg	16.6 mg/kg	2 µg/mL (≈ 2.44 µM)	0.015 µg/mL (≈ 0.0183 µM)	0.125 µg/mL (≈ 0.153 µM)	
CC[C@H]1OC(=O)[C@H](C)[C@@H](O[C@H]2C[C@@](C)(OC)[C@@H](O)[C@H](C)O2)[C@H](C)[C@@H](O[C@@H]2O[C@H](C)C[C@H](N(C)C)[C@H]2O)[C@](C)(O)C[C@@H](C)[C@H](NCCC(C)CCCC(C)(C)OC)[C@H](C)[C@@H](O)[C@]1(C)O (stereo partly drawn) [Compound 24, 9-Deoxo-9-[(7-methoxy-3,7-dimethyloctyl)amino]erythromycin]	0.25 µg/mL (≈ 0.276 µM)	64 µg/mL (≈ 70.7 µM)	64 µg/mL (≈ 70.7 µM)	0.015 µg/mL (≈ 0.0166 µM)	2 µg/mL (≈ 2.21 µM)	0.25 µg/mL (≈ 0.276 µM)	128 µg/mL (≈ 141 µM)	2 µg/mL (≈ 2.21 µM)		0.5 µg/mL (≈ 0.552 µM)	> 45.6 mg/kg	25 mg/kg	23.6 mg/kg	1 µg/mL (≈ 1.1 µM)		0.03 µg/mL (≈ 0.0331 µM)	
CC[C@H]1OC(=O)[C@H](C)[C@@H](O[C@H]2C[C@@](C)(OC)[C@@H](O)[C@H](C)O2)[C@H](C)[C@@H](O[C@@H]2O[C@H](C)C[C@H](N(C)C)[C@H]2O)[C@](C)(O)C[C@@H](C)[C@H]2[C@H](C)[C@@H](OCN2C(C)C)[C@]1(C)O [Compound 58, 9-Deoxo-9-[isopropylamino]-9,11-(N,O)-cyclic Methylene Adduct of Erythromycin]	1 µg/mL (≈ 1.27 µM)			0.125 µg/mL (≈ 0.158 µM)	4 µg/mL (≈ 5.07 µM)	0.5 µg/mL (≈ 0.634 µM)	32 µg/mL (≈ 40.6 µM)	4 µg/mL (≈ 5.07 µM)	64 µg/mL (≈ 81.1 µM)	1 µg/mL (≈ 1.27 µM)		6.7 mg/kg	5.7 mg/kg	4 µg/mL (≈ 5.07 µM)	0.06 µg/mL (≈ 0.076 µM)	0.25 µg/mL (≈ 0.317 µM)	MIC ([1]; Staphylococcus aureus, V41): > 128 µg/mL; MIC ([2]; Staphylococcus aureus, X400): > 128 µg/mL; MIC [13]: 128 µg/mL (≈ 162 µM); ED50 (Staphylococcus aureus; sc, subcutaneous, read-out: Subcutaneous ED50): > 10 mg/kg
